Measurements as given in patent US8383608B2, “Imidazolidine compounds as androgen receptor modulators” (Dart Therapeutics LLC, priority 2008, dated 2013).
Read-outs that look alike come from different tables or passages of the source.

Tested on: castrated immature young rats
Experiment: Adapted model of Hershberger's test
Type: in vivo, Sprague Dawley rats
Details: Rattus norvegicus, po, 96 h, ORX control = 0%, SHAM control = 100%, per os daily for 4 days, dose tested 10 mg/kg
Procedure: The selective modulating activity of the androgen receptor is tested in a model of castrated immature young rats. This model, which is widely recognised for evaluating the anabolic effects of androgen compounds on the muscles and on the prostate, has been described by Hershberger et al. 1953 Proc. Soc. Expt. Biol. Med. 83:175.
The method is based on the measurement of the well-known effects of androgens on the growth of the muscles and the accessory male sex organs in animals, and also in men. The consequences of castration appear in the form of a rapid involution and atrophy of the prostate and the seminal vesicles and of the anus-lifting muscle (levator ani). This effect may be completely compensated by an exogeneous administration of androgen, in particular of testosterone. The model is thus used to determine the capacity of the tested molecules to maintain the weight of the accessory sex and muscle organs in immature castrated rats, and therefore their androgenic efficacy.
Immature young Sprague Dawley rats (4 to 5 weeks old) weighing approximately 140-160 g (Charles River, Les Oncins, FRANCE) are distributed randomly in various groups and are kept in an environment at 22±2° C. with an alternating day/night cycle of 12 hours and ad libitum access to food and drink.
On day 0 (seven days before commencement of the first treatment) the rats are weighed individually then anaesthetised with an intraperitoneal dose of Ketamine/xylazine (85/15 mg/kg, approximately 2 ml/kg). Each animal is then placed on a sterile field and the abdomen and the scrotum are disinfected with Betadine and 70% alcohol. In the case of the orchidectomised control animals (ORX), the testicles are removed via an incision in the middle of the scrotum. A sterile suture is then made to ligature the supra-testicular portion of the tissue prior to surgical section of each testicle. The groups of animals to be treated by the tested compounds are operated on in an identical manner. In the case of the intact control animals (SHAM), the testicles are similarly extracted and reintroduced delicately to their original location. The site of surgical intervention is then sutured using sterile suture thread, and the site is disinfected again by application of Betadine. Each animal is then kept under a sterile pad until it awoke, before being returned to its cage. The animals are kept in an environment at 22±2° C. with an alternating day/night cycle of 12 hours and ad libitum access to food and drink. The animals are treated with the molecules to be tested from post-surgery day 7 and until day 10 preceding sacrifice (day 11).
The rats are split into groups and treated daily from day 7 to day 10 under the conditions defined below: • 1. SHAM control group: Vehicle (PEG400/DMSO/water; 79/1/20) administered per os. • 2. ORX control group: Vehicle (PEG400/DMSO/water; 79/1/20) administered per os. • 3. Treated ORX group: The tested compounds are administered individually per os in suspension in the vehicle described above, in a dose of 10 mg/kg.
After treatment for 4 successive days, the animals are decapitated using a guillotine. The levator ani and the ventral prostate are removed and weighed individually. For comparing inter-experimental data, the weight of each organ is standardised and expressed in milligrammes per 100 g of the weight of the animal (W). For each organ, the average of the standardised weights of the ORX control group is fixed by definition at 0% and the average of the standardised weights of the SHAM control group is fixed by definition at 100%. The efficacy of each product is expressed as a percentage and calculated using the following formula: (Wtreated−WORX)/(WSHAM−WORX)×100
A subsequent ANOVA test is used for statistical analysis to identify the differences between groups.

[1] = levator ani weight, read-out: Anabolic activity %
[2] = ventral prostate weight, read-out: Androgenic activity % (Prostate)

Row | Compound | response vs control in vivo at 10 mg/kg [1] | response vs control in vivo at 10 mg/kg [2]
1 | CN1C(=O)N(c2ccc(C#N)c(C(F)(F)F)c2)C(=O)C1(CO)c1ccc(Cl)cc1 (stereo not drawn) [Example 7, 4-[4-(4-Chlorophenyl)-2,5-dioxo-4-hydroxymethyl-3-methyl-imidazolidin-1-yl)-2-trifluoromethylbenzonitrile] | 25 to 50% | 0%
2 | CN1C(=O)N(c2ccc(C#N)c(C(F)(F)F)c2)C(=O)[C@@]1(CO)c1ccccc1 [Example 10, (S)-4-[2,5-Dioxo-4-(hydroxymethyl)-3-methyl-4-phenylimidazolidin-1-yl]-2-trifluoromethylbenzonitrile] | 75 to 100% | 0.5 to 25%
3 | CCN1C(=O)N(c2ccc(C#N)c(C(F)(F)F)c2)C(=O)C1(CO)c1ccccc1 (stereo not drawn) [Example 12, 4-[2,5-Dioxo-3-ethyl-4-(hydroxymethyl)-4-phenylimidazolidin-1-yl]-2-trifluoromethylbenzonitrile] | 75 to 100% | 50 to 75%
